Measurements published in US20260001871A1, “TRIAZOLE DERIVATIVES AS MODULATORS OF MAS-RELATED G-PROTEIN RECEPTOR D” (ESCIENT PHARMACEUTICALS, INC., priority 2022, published 2026).

Biological target: human MRGPRD (Homo sapiens, UniProt Q8TDS7)
Assay: MRGPRD antagonist activity, IP-One HTRF assay in CHO cells stably expressing human MRGPRD (versus 100 μM β-Alanine agonist)
Type: cell-based
Experimental: Chinese Hamster Ovary (CHO) cells stably expressing human MRGPRD (Eurofins, San Diego CA) were plated in a 384-well plate at 20,000 cells per well in 12 μL of Optimem (Fisher Scientific 11-058-021). Plates were kept in the incubator at 37° C. overnight. Antagonists were solubilized at a concentration of 10 mM in DMSO, and the agonists were solubilized to stock concentrations of either 50 mM in H2O (β-Alanine) or 10 mM in DMSO (all others) and then diluted in assay buffer (final concentrations of 5.7 mM Tris-HCl, 43 mM NaCl, 50 mM LiCl, pH=8). The concentration of DMSO was normalized across the plate. Antagonists were added to the plate using a Tecan D300 Digital Dispenser at nanoliter/picoliter volumes and 2 μL of agonists in assay buffer were added to each well for a final assay volume of 14 μL. Plates were covered and incubated for 1 h at 37° C. and then for 1 h at room temperature. IP-1 standards and HTRF detection reagents were added according to an IP-One—Gq Kit purchased from Cisbio (part number 621PAPEJ) and incubated in the dark for 1 h at room temperature. Assay plates were read on either a Molecular Devices SpectraMax iD5 plate reader or a BMG ClarioStar plate reader. The HTRF ratio was calculated form the raw data and graphed using GraphPad Prism to calculate IC50 values. Data are expressed as average IC50 values and average percent antagonism calculated as a percent of the maximum efficacy response. For these studies, the variability of the data was assessed by determining the standard error of mean (SEM).
The activity ranges are denoted as follows: “+++++” denotes antagonist activity<100 nM; “++++” denotes antagonist activity between 100 and 500 nM; “+++” denotes activity between 500 and 1000 nM; “++” denotes activity between 1000 and 3000 nM; and “+” denotes activity>3000 nM.

Chain of human MRGPRD (Q8TDS7 whole entry): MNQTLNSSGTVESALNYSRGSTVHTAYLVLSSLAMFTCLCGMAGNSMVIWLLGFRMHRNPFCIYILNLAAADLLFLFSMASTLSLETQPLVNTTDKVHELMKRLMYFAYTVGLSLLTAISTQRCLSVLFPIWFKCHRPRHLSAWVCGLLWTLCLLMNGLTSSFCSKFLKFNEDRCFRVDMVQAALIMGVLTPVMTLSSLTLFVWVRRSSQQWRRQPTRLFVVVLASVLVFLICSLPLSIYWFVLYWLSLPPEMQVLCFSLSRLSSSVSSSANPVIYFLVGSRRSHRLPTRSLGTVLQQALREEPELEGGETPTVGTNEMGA

| SMILES | IC50 [nM] |
| --- | --- |
| Cc1oncc1-c1ccc(-n2nnc(C(=O)Nc3ccncc3)c2C2CC2)cc1 [Compound 7-45] | 100 to 500 |
| COCc1ccc(-c2ccc(-n3nnc(C(=O)Nc4ccncc4)c3C3CC3)cc2)cc1 [Compound 7-46] | 100 to 500 |
| Cc1c(-c2ccc(-n3nnc(C(=O)Nc4ccncc4)c3C3CC3)cc2)c(C(F)(F)F)nn1C [Compound 7-47] | 100 to 500 |
| COc1cc(C#N)ccc1-c1ccc(-n2nnc(C(=O)NCc3ccc(C)nc3)c2C2CC2)cc1 [Compound 7-48] | 100 to 500 |
| CC(=O)c1ccc(-c2ccc(-n3nnc(C(=O)Nc4ccncc4)c3C3CC3)cc2)cc1 [Compound 7-49] | 100 to 500 |
| Cc1c(-c2ccc(-n3nnc(C(=O)Nc4ccncc4)c3C3CC3)cc2)cnn1C [Compound 7-50] | 100 to 500 |
| Cc1cc(NC(=O)c2nnn(-c3ccc(-c4ccc(C#N)cc4C)cc3)c2C2CC2)ccn1 [Compound 7-52] | 100 to 500 |
| Cc1cc(NC(=O)c2nnn(-c3ccc(-c4ccc(C#N)cc4)cc3OC(F)(F)F)c2C2CC2)ccn1 [Compound 7-53] | 100 to 500 |
| N#Cc1ccc(-c2ccc(-n3nnc(C(=O)Nc4ccncc4)c3C3CC3)cc2)c(F)c1 [Compound 7-54] | 100 to 500 |
| Cn1ccc(-c2ccc(-n3nnc(C(=O)Nc4ccncc4)c3C3CC3)cc2)c1 [Compound 7-55] | 100 to 500 |
| O=C(Nc1ccncc1)c1nnn(-c2ccc(-c3cccc(C4CC4)c3)cc2)c1C1CC1 [Compound 7-56] | 100 to 500 |
| Cc1nocc1-c1ccc(-n2nnc(C(=O)Nc3ccncc3)c2C2CC2)cc1 [Compound 7-57] | 100 to 500 |
| O=C(Nc1ccncc1)c1nnn(-c2ccc(-c3ccc(O)cc3)cc2)c1C1CC1 [Compound 7-58] | 100 to 500 |
| O=C(Nc1ccncc1)c1nnn(-c2ccc(-c3ccc(CC(F)(F)F)cc3)cc2)c1C1CC1 [Compound 7-59] | 100 to 500 |
| Cc1cc(-c2ccc(-n3nnc(C(=O)Nc4ccncc4)c3C3CC3)cc2)ccc1C#N [Compound 7-60] | 100 to 500 |
| Cc1cc(NC(=O)c2nnn(-c3ccc(-c4ccc(C#N)cc4)cc3)c2C2CC2)ccn1 [Compound 7-61] | 100 to 500 |
| O=C(Nc1ccncc1)c1nnn(-c2ccc(-c3cnn(C4CCC4)c3)cc2)c1C1CC1 [Compound 7-62] | 100 to 500 |
| O=C(Nc1ccncc1)c1nnn(-c2ccc(-c3cnn(C4CCCC4)c3)cc2)c1C1CC1 [Compound 7-63] | 100 to 500 |
| O=C(Nc1ccncc1)c1nnn(-c2ccc(-c3ccc4c(c3)CCC4)cc2)c1C1CC1 [Compound 7-64] | 100 to 500 |
| O=C(Nc1ccncc1)c1nnn(-c2ccc(-c3ccc(F)cc3)cc2)c1C1CC1 [Compound 7-65] | 100 to 500 |
| O=C(Nc1ccncc1)c1nnn(-c2ccc(-c3ccc(C(F)(F)F)cc3)cc2)c1C1CC1 [Compound 7-66] | 100 to 500 |
| CC(C)C(=O)c1cccc(-c2ccc(-n3nnc(C(=O)Nc4ccncc4)c3C3CC3)cc2)c1 [Compound 7-67] | 100 to 500 |

| SMILES | IC50 [nM] |
| --- | --- |
| Cn1nc(-c2ccccc2)cc1-c1ccc(-n2nnc(C(=O)Nc3ccncc3)c2C2CC2)cc1 [Compound 7-68] | 100 to 500 |
| O=C(Nc1ccncc1)c1nnn(-c2ccc(-c3ccc(CO)cc3)cc2)c1C1CC1 [Compound 7-69] | 100 to 500 |
| COc1cc(-c2ccc(-n3nnc(C(=O)Nc4ccncc4)c3C3CC3)cc2)ccc1C#N [Compound 7-70] | 100 to 500 |
| CS(=O)(=O)c1cccc(-c2ccc(-n3nnc(C(=O)Nc4ccncc4)c3C3CC3)cc2)c1 [Compound 7-71] | 100 to 500 |
| Cc1nn(C)cc1-c1ccc(-n2nnc(C(=O)Nc3ccncc3)c2C2CC2)cc1 [Compound 7-72] | 100 to 500 |
| Cc1cnn(C)c1-c1ccc(-n2nnc(C(=O)Nc3ccncc3)c2C2CC2)cc1 [Compound 7-73] | 100 to 500 |
| CC(C)C(=O)c1ccc(-c2ccc(-n3nnc(C(=O)Nc4ccncc4)c3C3CC3)cc2)cc1 [Compound 7-74] | 100 to 500 |
| CC(=O)c1ccc(-c2ccc(-n3nnc(C(=O)Nc4ccncc4)c3C3CC3)cc2)c(F)c1 [Compound 7-75] | 100 to 500 |
| Cc1cc(NC(=O)c2nnn(-c3ccc(-c4ccccc4)cc3)c2C2CC2)ccn1 [Compound 7-76] | 100 to 500 |
| O=C(Nc1ccncc1)c1nnn(-c2ccc(-c3ccc[nH]3)cc2)c1C1CC1 [Compound 7-77] | 100 to 500 |
| Cn1ncc(-c2ccc(-n3nnc(C(=O)Nc4ccncc4)c3C3CC3)cc2)n1 [Compound 7-78] | 100 to 500 |
| O=C(Nc1ccncc1)c1nnn(-c2ccc(-c3cnsc3)cc2)c1C1CC1 [Compound 7-79] | 100 to 500 |
| CC(=O)c1cccc(-c2ccc(-n3nnc(C(=O)Nc4ccncc4)c3C3CC3)cc2)c1 [Compound 7-80] | 100 to 500 |
| Cc1cc(NC(=O)c2nnn(-c3ccc(-c4ccc(F)cc4)cc3)c2C2CC2)ccn1 [Compound 7-81] | 100 to 500 |
| Cc1cc(NC(=O)c2nnn(-c3ccc(-c4ccccc4)cc3OC(F)(F)F)c2C2CC2)ccn1 [Compound 7-82] | 100 to 500 |
| CC(O)c1ccc(-c2ccc(-n3nnc(C(=O)Nc4ccncc4)c3C3CC3)cc2)cc1 (stereo not drawn) [Compound 7-83] | 100 to 500 |
| COc1ccc(-c2ccc(-n3nnc(C(=O)Nc4ccncc4)c3C3CC3)cc2)cc1C [Compound 7-84] | 100 to 500 |
| CC(=O)c1cccc(-c2ccc(-n3nnc(C(=O)Nc4ccncc4)c3C3CC3)cc2)c1F [Compound 7-85] | 100 to 500 |
| CCCn1cc(-c2ccc(-n3nnc(C(=O)Nc4ccncc4)c3C3CC3)cc2)cn1 [Compound 7-86] | 100 to 500 |
| Cc1cc(NC(=O)c2nnn(-c3ccc(-c4ccc(C#N)c(F)c4)cc3)c2C2CC2)cc(C)n1 [Compound 7-87] | 100 to 500 |
| O=C(Nc1ccncc1)c1nnn(-c2ccc(-c3cnn(C4CC4)c3)cc2)c1C1CC1 [Compound 7-88] | 100 to 500 |
| Cc1cnc(-c2ccc(-n3nnc(C(=O)Nc4ccncc4)c3C3CC3)cc2)s1 [Compound 7-89] | 100 to 500 |

Results, then the compound that gave them:

| IC50 [nM] | SMILES |
| --- | --- |
| < 100 | O=C(Nc1ccncc1)c1nnn(-c2ccc(-c3cnn(Cc4ccccc4)c3)cc2)c1C1CC1 [Compound 7-20] |
| 100 to 500 | Cc1cc(NC(=O)c2nnn(-c3ccc(-c4ccccc4)cc3F)c2C2CC2)ccn1 [Compound 7-21] |
| 100 to 500 | N#Cc1ccc(-c2ccc(-n3nnc(C(=O)Nc4ccncc4)c3C3CC3)cc2)cc1F [Compound 7-22] |
| 100 to 500 | N#CCc1ccc(-c2ccc(-n3nnc(C(=O)Nc4ccncc4)c3C3CC3)cc2)cc1 [Compound 7-23] |
| 100 to 500 | COc1cc(C#N)ccc1-c1ccc(-n2nnc(C(=O)Nc3ccncc3)c2C2CC2)cc1 [Compound 7-24] |
| 100 to 500 | O=C(Nc1ccncc1)c1nnn(-c2ccc(-c3cnn4c3CCC4)cc2)c1C1CC1 [Compound 7-25] |
| 100 to 500 | Cc1c(-c2ccc(-n3nnc(C(=O)Nc4ccncc4)c3C3CC3)cc2)cnn1-c1ccccc1 [Compound 7-26] |
| 100 to 500 | COc1ccc(-c2ccc(-n3nnc(C(=O)Nc4ccncc4)c3C3CC3)cc2)cc1 [Compound 7-27] |
| 100 to 500 | O=C(Nc1ccncc1)c1nnn(-c2ccc(-c3ccc(C(F)F)cc3)cc2)c1C1CC1 [Compound 7-28] |
| 100 to 500 | O=C(Nc1ccncc1)c1nnn(-c2ccc(-c3cnn(Cc4cccs4)c3)cc2)c1C1CC1 [Compound 7-29] |
| 100 to 500 | N#CCc1cccc(-c2ccc(-n3nnc(C(=O)Nc4ccncc4)c3C3CC3)cc2)c1 [Compound 7-30] |
| 100 to 500 | Cc1nn2cccnc2c1-c1ccc(-n2nnc(C(=O)Nc3ccncc3)c2C2CC2)cc1 [Compound 7-31] |
| 100 to 500 | O=C(Nc1ccncc1)c1nnn(-c2ccc(-c3ccoc3)cc2)c1C1CC1 [Compound 7-32] |
| 100 to 500 | Cc1nn(C)c(C)c1-c1ccc(-n2nnc(C(=O)Nc3ccncc3)c2C2CC2)cc1 [Compound 7-33] |
| 100 to 500 | COc1ccc(-c2ccc(-n3nnc(C(=O)Nc4ccncc4)c3C3CC3)cc2)c(C)c1 [Compound 7-34] |
| 100 to 500 | COc1ccc(-c2ccc(-n3nnc(C(=O)Nc4ccncc4)c3C3CC3)cc2)c(F)c1 [Compound 7-35] |
| 100 to 500 | CN(C)c1cccc(-c2ccc(-n3nnc(C(=O)Nc4ccncc4)c3C3CC3)cc2)c1 [Compound 7-36] |
| 100 to 500 | CC(C)c1cccc(-c2ccc(-n3nnc(C(=O)Nc4ccncc4)c3C3CC3)cc2)c1 [Compound 7-37] |
| 100 to 500 | Cc1cc(NC(=O)c2nnn(-c3ccc(-c4ccc(C#N)nc4)cc3)c2C2CC2)ccn1 [Compound 7-38] |
| 100 to 500 | N#Cc1ccc(-c2ccc(-n3nnc(C(=O)Nc4ccncc4)c3C3CC3)cc2)cc1 [Compound 7-39] |
| 100 to 500 | Cc1noc(C)c1-c1ccc(-n2nnc(C(=O)Nc3ccncc3)c2C2CC2)cc1 [Compound 7-40] |
| 100 to 500 | O=C(Nc1ccncc1)c1nnn(-c2ccc(-c3cc[nH]n3)cc2)c1C1CC1 [Compound 7-41] |
| 100 to 500 | CC(=O)c1ccc(-c2ccc(-n3nnc(C(=O)Nc4ccncc4)c3C3CC3)cc2)c(C)c1 [Compound 7-42] |
| 100 to 500 | CN(C)S(=O)(=O)n1ccc(-c2ccc(-n3nnc(C(=O)Nc4ccncc4)c3C3CC3)cc2)n1 [Compound 7-43] |
| 100 to 500 | Cc1ccc(-c2ccc(-n3nnc(C(=O)Nc4ccncc4)c3C3CC3)cc2)cc1 [Compound 7-44] |
